The values below come from patent publication US20060233857A1, “Degradable elastomeric network” (priority 2005, published 2006).

Counter-ions that a name gives are not always drawn. Like-named read-outs stand apart in the source and are kept apart here.

For data set [1] the following is noted: cited from earlier work.
The nature of data set [2]: Diffusivity by Pulsed Field Gradient Nuclear Magnetic Resonance. The data set is classed as physicochemical. To be noted: 37° C. The method, then:
Goserelin acetate and vitamin B12 were incorporated into cylindrical polymer matrices as described in Example 2, but using only PEGD 24000 g/mol. Goserelin acetate is a peptide having the sequence Pyr-His-Trp-Ser-Tyr-D-Ser(tBu)-Leu-Arg-Pro-Azagly-NH2 acetate salt. Its molecular weight is 1269 g/mol and it has a water solubility of 20 mg/mL at 25° C. […] The diffusivities of these two compounds was determined at 37° C. using Pulsed Field Gradient Nuclear Magnetic Resonance. The measured diffusivities were 2.8±0.1 and 2.6±0.1 (10^−6) cm^2/s for vitamin B12 and goserelin, respectively. These diffusivities are essentially the same. In vitro release experiments on these cylinders were performed as described in Example 2. […] As the diffusivities of the two compounds are very similar, and degradation of the polymer occurs slowly, release cannot be controlled by either diffusion or polymer degradation. The higher release rate must therefore be a result of the higher aqueous solubility of the goserelin acetate. Thus, release is driven by the dissolution rate of the compound in the aqueous regions of the polymer matrix.

A short description of data set [3]: In vitro release of goserelin acetate and vitamin B12 from ASCP 2700 / PEGD 24000 cylinders. The data set is classed as physicochemical. To be noted: 90% ASCP 2700 and 10% PEGD 24000 cylinders, loading 1 w/w %. From the text:
Acrylated star-poly(ε-caprolactone-co-D,L-lactide) (ASCP) of molecular weight 2700 g/mol was co-dissolved in tetrahydrofuran with poly(ethylene glycol)diacrylate (PEGD) of molecular weight 4000 g/mol or 24000 g/mol. The total polymer concentration was 1 g/mL THF. The mass ratio of PEGD:ASCP was 1:9 (10% PEGD). In this solution was suspended vitamin B12 particles that had been ground and sieved to less than 100 μm in diameter. The total mass of vitamin B12 to polymer was 1:99 (1% vitamin B12). 1.5 w/w % of 2,2-dimethoxy-2-phenyl-acetophenone (DMPA) photoinitiator was also included. The suspension was injected into a 1.8 mm diameter glass tube to a length of 34 cm and sealed with parafilm. […] The concentration of vitamin B12 in the release samples was measured with a Spectromax microplate spectrophotometer. 0.250 mL of vitamin B12 sample per well was added into a 96 well microplate, and the absorbance of these samples was read at 381 nm. […]
Goserelin acetate and vitamin B12 were incorporated into cylindrical polymer matrices as described in Example 2, but using only PEGD 24000 g/mol. […] The diffusivities of these two compounds was determined at 37° C. using Pulsed Field Gradient Nuclear Magnetic Resonance. The measured diffusivities were 2.8±0.1 and 2.6±0.1 (10^−6) cm^2/s for vitamin B12 and goserelin, respectively. […]

Data set [4] in a line: Effect of cross-linking UV irradiation on vitamin B12 absorbance. The data set is classed as physicochemical. The settings on record: 10 mW/cm^2 long-wave UV 5 minutes, with photo-initiator, in ethyl acetate or non-acrylated polymer solution. The protocol:
As vitamin B12 absorbs within the UV region, it was important to determine whether the cross-linking conditions affected the vitamin B12. The vitamin B12 was therefore suspended in ethyl acetate in the presence of the photo-initiator, and in a non-acrylated polymer solution also containing the photo-initiator, and subjected to 10 mW/cm^2 long-wave UV irradiation for 5 minutes. The vitamin B12 was then filtered from solution, dried, and dissolved in varying concentrations and their absorbance measured and compared to that of solutions prepared from the as-received vitamin B12.

`CC(C)C[C@H](NC(=O)[C@@H](COC(C)(C)C)NC(=O)[C@H](Cc1ccc(O)cc1)NC(=O)[C@H](CO)NC(=O)[C@H](Cc1c[nH]c2ccccc12)NC(=O)[C@H](Cc1cnc[nH]1)NC(=O)[C@@H]1CCC(=O)N1)C(=O)N[C@@H](CCCNC(=N)N)C(=O)N1CCC[C@H]1C(=O)NNC(N)=O` [Goserelin acetate, Pyr-His-Trp-Ser-Tyr-D-Ser(tBu)-Leu-Arg-Pro-Azagly-NH2 acetate salt]: the water solubility in data set [1] (25° C.) is given as 20 mg/mL. For the same molecule, the diffusivity in data set [2] is on record as 2.6±0.1 (10^−6) cm^2/s. Moreover, in data set [3], the “release rate compared with vitamin B12 (in words)” value is reported as “appreciably faster rate”.
For vitamin B12, the water solubility in data set [1] (temperature not given) is given as 12.5 mg/mL. Further, the diffusivity in data set [2] was 2.8±0.1 (10^−6) cm^2/s. Moreover, the “change in the absorbance of the vitamin B12 due to cross-linking conditions” value in data set [4] is listed as “no significant change”.
